The values below come from patent US7632506B2, “Identification of new NY-ESO-1 epitopes recognized by CD4+ T-cells” (Ludwig Institute for Cancer Research, priority 2005, dated 2009).

Holding throughout (assay type): cell-based, human
Assay [1] deals with CD4+ T cell clones NW2337-CD4-1 and NW2337-CD4-10. Put plainly: Peptide titration ELISPOT assay with overlapping NY-ESO-1 peptides. The settings on record: peptide 10 μM to 0.1 nM pulsed onto autologous EBV-B-cells. As for the experimental part:
(§1) The CD4^+ T cells were restimulated weekly with 1 μg/ml of the peptide being used. On day 12, each CD4^+ culture was assayed for NY-ESO-1 peptide recognition, using the ELISPOT assay of lager, et al., Proc. Natl. Acad. Sci. USA, 97(9):4760-4765 (2000), incorporated by reference. To elaborate on this procedure, flat-bottomed, 96-well nitrocellulose plates were coated with 5 μg/ml of anti-interferon-gamma antibody and incubated overnight at 4° C. After washing with PBS, plates were blocked with 10% human serum (HS) for 1 hour at 37° C. Depending on the effector:target ratio used, various numbers of presensitized CD4^+ T-cells were added to each well along with 5×10^4 autologous peptide pulsed EBV transfected B cells (“EBV-B cells”) serving as target cells and incubated for 16 hours at 37° C. in TCM without IL-2. Plates were then washed extensively (6 times with a solution of 0.05% Tween 20/PBS), and biotinylated anti-interferon-gamma detection antibody was added at a concentration of 0.5 μg/ml. After incubation for 2 h at 37° C., plates were washed and incubated with ABC-AP Vectastain for 1 hour. Plates were washed again and developed with substrate (BCIP/NPT) until blue spots were visible. The number of blue spots/well represented the proportion of NY-ESO-1 specific CD4^+ T-cells/well was finally counted under the microscope.
To further identify the exact epitope required for CD4^+ T cell recognition by these two CD4^+ T cell clones, a peptide titration assay was performed using overlapping NY-ESO-1 peptides (FIG. 2) at concentrations between 10 μM and 0.1 nM, pulsed onto autologous EBV-B-cells and tested in ELISPOT assays (FIG. 3).

Assay [2] has the same test system. Put plainly: 51Cr release assay with peptide-pulsed EBV-B target cells. The settings on record: autologous EBV B cells pulsed with peptide 10 μg/ml, clone generated with p55-72. As for the experimental part:
In these experiments, exemplary clones NY-ESO-1 p49-66 specific CD4^+ T cell clone NW2337-CD4-1 and NY-ESO-1 p55-72 specific CD4^+ T cell clone NW2337-CD4-10 were characterized in ^51Chromium (^51Cr) release assays using peptides overlapping the sequence of each stimulation peptide. Standard ^51Cr release assay methods were used. Briefly, autologous EBV B cell target cells were labeled with 100 μCi Na2^51CrO4 for 2 hours, and pulsed with 18 mer or 20 mer NY-ESO-1 peptides (10 μg/ml) for 1 hour. Then, 1×10^3 target cells/well were incubated in 96 V- bottom microwell plates with effector cells at different E/T ratios for 4 h at 37° C. ^51Cr release was measured in the supernatant and the specific cytotoxicity was calculated using the standard methods. Polyclonal T-cell populations were preincubated with unlabeled K562 cells as competitors at a concentration of 40:1 in order to block non-specific effector reactions.
These experiments confirmed recognition of naturally presented NY-ESO-1 epitopes by the CD4+ T-cell clones.

A further assay deals with CD4+ T cells. Put plainly: IFN-γ ELISPOT of CD4+ T cells presensitized with overlapping NY-ESO-1 18 mer peptides. The settings on record: for Patient T cells 1 / Patient T cells 2 / Patient T cells 3: IFN-γ ELISPOT; for Patient T cells 1: day 12, CD4+ T cells of patient 1, autologous peptide pulsed EBV-B cells as targets; for Patient T cells 2: day 12, CD4+ T cells of patient 2, autologous peptide pulsed EBV-B cells as targets; for Patient T cells 3: day 12, CD4+ T cells of patient 3, autologous peptide pulsed EBV-B cells as targets. As for the experimental part: Peripheral blood mono-nuclear cells (“PBMCs”) were separated from heparinized blood via Ficoll density gradient separation, using standard, art recognized techniques. Once this was done, the CD4^+ and CD8^+ T cells were separated from each other using magnetic cell sorting techniques which are well known to the art, producing CD4^+, CD8^+, and CD4^−/CD8^− cell populations.
A series of 18 mer peptides were prepared from the amino acid sequence of NY-ESO-1 as set forth in, e.g., U.S. Pat. No. 5,804,381, incorporated by reference. The peptides were designed to cover the entire sequence of NY-ESO-1, and to provide overlap.
The peptides were then individually pulsed to antigen presenting cells (“APCs”). These were CD4^−/CD8^− PBMCs taken from the same subjects who had provided the CD4^+ and CD8^+ cells. These APCs were irradiated with 3000 rads, and then pulsed with one of the peptides, at a concentration of 10 μg/ml, for 1 hour, in serum free medium. These APCs were then washed, and added to the CD4^+ cells. In the pulsing experiments, the peptides were solubilized in DMSO (100%) and then diluted with PBS to a final concentration of 10% DMSO. The CD4^+ cells had been cultured in a medium of L-arginine (242 mg/l), L-asparagene (50 mg/l), L-glutamine (300 mg/l), penicillin (10 IU/ml), streptomycin (100 μg/ml), 1% non-essential amino acids, 10% HS, and 10 ng/ml of recombinant human IL-2.
as §1
The EBV-B-cells were generated from each patients' PBMC following standard methods and maintained in RPMI 1640 medium supplemented with 10 mM Hepes buffer, L-arginine (242 mg/l), L-asparagine (50mg/l), L-glutamine (300 mg/l), penicillin (10 IU/ml), streptomycin (100 μg/ml), 1% non-essential amino acids, and 10% FCS. […] PBMC's or EBV-B-cells were molecularly typed for HLA expression using standard procedures.

Consider “61-80: overlapping 20 mer NY-ESO-1 peptide, amino acids 61-80 (PRGPHGGAASGLNGCCRCGA; UniProt P78358 61-80, looked up, fragment) [Peptide 61-80]”, for which, in assay [1], the “recognition by clone NW2337-CD4-10” value was “able to recognize”.

With “P61-78: synthetic 18 mer peptide, amino acids 61-78 of NY-ESO-1 (PRGPHGGAASGLNGCCRC; UniProt P78358 61-78, looked up, fragment) [Peptide P61-78]”, the “recognition by clone NW2337-CD4-10” value in assay [2] is “crossreacted”. Moreover, in assay [1], the “recognition by clone NW2337-CD4-10” value is on record as “able to recognize”. In the assay with CD4+ T cells, the “Patient T cells 1” value is recorded as “+ (+ indicates >50 spots (all + scores indicated were >100 spots))”, the “Patient T cells 2” value was “+ (+ indicates >50 spots (all + scores indicated were >100 spots))” and the “Patient T cells 3” value is listed as “+ (+ indicates >50 spots (all + scores indicated were >100 spots))”. Besides, in the assay on CD4+ T cells (three patients tested), the “patients whose CD4+ T cells recognized the peptide” value is on record as “all three patients”.

On to “p51-70: overlapping 20 mer NY-ESO-1 peptide, amino acids 51-70 (ARASGPGGGAPRGPHGGAAS; UniProt P78358 51-70, looked up, fragment)”, for which, in assay [1], the “recognition by clone NW2337-CD4-1” value is given as “recognized”.

For “p139-156: synthetic 18 mer peptide, amino acids 139-156 of NY-ESO-1 (AADHRQLQLSISSCLQQL; UniProt P78358 139-156, looked up, fragment)”, in the assay on CD4+ T cells, the “Patient T cells 1” value is listed as “− (− indicates <50 spots)”, the “Patient T cells 2” value is recorded as “− (− indicates <50 spots)” and the “Patient T cells 3” value is on record as “− (− indicates <50 spots)”.

Take “p145-162: synthetic 18 mer peptide, amino acids 145-162 of NY-ESO-1 (LQLSISSCLQQLSLLMWI; UniProt P78358 145-162, looked up, fragment)”: in the assay on CD4+ T cells, the “Patient T cells 1” value is given as “− (− indicates <50 spots)”, the “Patient T cells 2” value is reported as “− (− indicates <50 spots)” and the “Patient T cells 3” value is on record as “− (− indicates <50 spots)”.

As to “p151-168: synthetic 18 mer peptide, amino acids 151-168 of NY-ESO-1 (SCLQQLSLLMWITQCFLP; UniProt P78358 151-168, looked up, fragment)”, in the assay on CD4+ T cells, the “Patient T cells 1” value is given as “− (− indicates <50 spots)”, the “Patient T cells 2” value is reported as “− (− indicates <50 spots)” and the “Patient T cells 3” value is “− (− indicates <50 spots)”.

Take “p157-174: synthetic 18 mer peptide, amino acids 157-174 of NY-ESO-1 (SLLMWITQCFLPVFLAQP; UniProt P78358 157-174, looked up, fragment)”: in the assay with CD4+ T cells, the “Patient T cells 1” value is given as “− (− indicates <50 spots)”, the “Patient T cells 2” value is on record as “− (− indicates <50 spots)” and the “Patient T cells 3” value is “− (− indicates <50 spots)”.

With “p163-180: synthetic 18 mer peptide, amino acids 163-180 of NY-ESO-1 (TQCFLPVFLAQPPSGQRR; UniProt P78358 163-180, looked up, fragment)”, in the assay with CD4+ T cells, the “Patient T cells 1” value is reported as “− (− indicates <50 spots)”, the “Patient T cells 2” value is on record as “− (− indicates <50 spots)” and the “Patient T cells 3” value is listed as “− (− indicates <50 spots)”.
